# Patent US20150071856A1, “ANTAGONISTIC PEPTIDES FOR FRIZZLED-1 AND FRIZZLED-2” (Universiteit Maastricht, priority 2013, published 2015)
# “Also recorded” adds a separate entry of the source. Residues, ends and D or L forms follow the SMILES beside them.
# Tests used:
# [1] = system: C-FIT cells (cardiac fibroblasts immortalized with telomerase); assay: Migration assay (wound/scratch assay) with C-FIT cells overexpressing Fzd-1 or -2; format: cell-based, rat
# Method: For this assay, we used rat cardiac fibroblasts, which were immortalized with telomerase, the C-FIT cell line. This cell line was characterized previously and resembles features of primary cardiac fibroblasts. C-FIT cells were plated, treated when they were 70% confluent and a wound was made with a pipette tip at the moment of 100% confluence.
# This assay was first tested with the natural ligand Wnt3a, in combination with frizzled-1 and -2 overexpression. […] Next step was to see whether the antagonist could counteract this. (See FIG. 4.)
# Plate cells in 12-well plates
# Transfection (see protocol)
# Addition of conditioned medium
# Make a scratch. This is time point zero.
# Making pictures every six hours and analyzing the scratch width.
# The overexpression of Fzd-1 and -2 in migrating (myo)fibroblasts during infarct healing was one of the first reports of activation of Wnt/Fzd signaling in cardiovascular remodeling (Blankesteijn 1997). To assess the functional relevance of Wnt/Fzd signaling on cardiac fibroblast proliferation, migration and differentiation, a cardiac fibroblast cell line immortalized with telomerase was used, as previously described (Janhunen 2009, Laeremans 2009).
# Cells were plated on day 0, and cultured until 70% confluence before transfection or treatment. […] Scratch width was measured at this time point, and also after 6, 12, and 24 hours.
# myocardial infarction = conditions: mouse, in vivo
# Method: To this end, we administered UM206 subcutaneously by an osmotic minipump (6 microgram/kg/day); the control group was equipped with a saline-filled minipump. The minipumps were implanted at the time of infarct induction and lasted for up to five weeks.
# Male Swiss mice were used (10-12 weeks of age, Charles River, Maastricht, The Netherlands). The animals were randomly included into the three different experimental groups. […] In the treatment study, either UM206 (6 μg/kg/day) or saline were administrated by an osmotic minipump (Alzet 2002 or 2006 for two- and five-week treatments, respectively; Alzet, Cupertino Calif., USA). MI was induced, under isofluorane anesthesia as previously described (van den Borne et al., 2009).
smiles,measurement,setting,value
"CSCC[C@H](NC(=O)CNC(=O)[C@H](CCC(=O)O)NC(=O)[C@H](CO)NC(=O)[C@@H](NC(=O)[C@H](CCCCN)NC(=O)[C@H](CC(N)=O)NC(=O)[C@H](CS)NC(C)=O)[C@@H](C)O)C(=O)N[C@@H](CC(=O)O)C(=O)NCC(=O)N[C@@H](CS)C(=O)N[C@@H](CCC(=O)O)C(=O)N[C@@H](CC(C)C)C(N)=O [UM206, Ac-Cys-Asn-Lys-Thr-Ser-Glu-Gly-Met-Asp-Gly-Cys-Glu-Leu-NH2] (Ac-CNKTSEGMDGCEL-NH2)",effect of UM206 alone on cell migration,[1],no effect on cell migration
same,counteraction of Wnt3a/Wnt5a-induced attenuation of migration,"[1]; UM206 1.10^−8 M, Fzd-1 or -2 overexpression",migration was reset to the migration speed of the control; also recorded: blocked completely; also recorded: block this effect completely
same,adverse effects of chronic administration,myocardial infarction,did not observe any adverse effects
same,"effects on other organs known to contain Fzd-2, including kidney and small intestine",myocardial infarction,did not observe any effects
